Reference: patent publication US11952586B2, “B-cell cultivation method” (Hoffmann-La Roche Inc., priority 2017, dated 2024)

What was measured:
single deposited B-cells = test: co-cultivation of single deposited B-cells with EL-4 B5 feeder cells; IgG in supernatant by ELISA; type: cell-based, rabbit; conditions: addition of PAP-1 to the co-cultivation
Description: Single cell sorted B-cells were cultured in 96-well plates with 200 μl/well EL-4 B5 medium with Pansorbin Cells (SAC) (Calbiochem (Merck), Darmstadt, Deutschland), EL-4 B5 cells (0-5×10^4/well) and rabbit thymocyte supernatant or cytokine mix, respectively, for 7 days at 37° C. in an atmosphere of 5% CO2 in the incubator. B-cell culture supernatants were removed for screening and the cells harvested immediately for variable region gene cloning or frozen at −80° C. in 100 μl RLT buffer (Qiagen, Hilden, Germany).
A mixture of 0.5 μg/ml of biotinylated mouse anti-rabbit IgG antibody (Sigma-Aldrich) and 0.35 μg/ml anti-rabbit IgG HRP conjugate (Sigma-Aldrich) was transferred to 384 well streptavidin coated microtiter plates (MicroCoat Biotechnologie GmbH). Dilutions of B-cell supernatants in PBS supplemented with 0.5% BSA and 0.05% Tween®-20 were added and incubated for 90 min at RT. After repeated washing (6×) with PBST (phosphate buffered saline with 0.2% Tween buffer the plates were developed with BM Blue® HRP substrate solution and color formation was measured by absorbance at 370 nm. A commercial rabbit IgG (Sigma-Aldrich) was used as a calibration standard.

murine B-cells = test: co-cultivation of murine B-cells with feeder mix additives; type: cell-based
Description: (§1) Thus, in one embodiment of all methods as reported herein the feeder mix for the co-cultivation of murine- or hamster-B-cells comprises IL-4.
(§2) Thus, in one embodiment of all methods as reported herein the feeder mix for the co-cultivation of murine-B-cells or hamster-B-cells comprises IL-6. In one embodiment the IL-6 is added at a concentration of 50 ng/ml. In one embodiment IL-6 is added at a concentration of 10 ng/ml, if high IgG-concentration is required. In one embodiment the addition of IL-6 is after three days of co-cultivation of the selected B-cells and EL-4 B5 cells.

hamster B-cells = test: co-cultivation of hamster B-cells with feeder mix additives; type: cell-based
Description: as §1, §2

Molecule: O=c1ccc2c(OCCCCOc3ccccc3)c3ccoc3cc2o1 [PAP-1, 5-(4-phenoxybutoxy) psoralene]
- number of B-cell clones (single deposited B-cells): without decreasing the number of B-cell clones
- rbIgG secretion of B-cells (single deposited B-cells): increases the rbIgG secretion of B-cells in a concentration dependent manner

Molecule: IL-6: interleukin-6, cytokine added to the feeder mix
- number of IgG+-wells/cell clones (murine B-cells; addition of IL-6 to the feeder mix, murine-B-cells): increased number of IgG^+-wells/cell clones
- IgG-concentration (hamster B-cells; addition of IL-6 to the feeder mix, hamster-B-cells): increased IgG-concentration

B1: IL-4: interleukin-4, cytokine added to the feeder mix (protein, UniProt P05112 25-153, looked up)
Interleukin-4: HKCDITLQEIIKTLNSLTEQKTLCTELTVTDIFAASKNTTEKETFCRAATVLRQFYSHHEKDTRCLGATAQQFHRHKQLIRFLKRLDRNLWGLAGLNSCPVKEANQSTLENFLERLKTIMREKYSKCSS
- number of IgG+-wells/cell clones and IgG-concentration in the supernatant (murine B-cells; addition of IL-4 to the feeder mix, murine B-cells): increases the number of IgG^+-wells/cell clones as well as the IgG-concentration in the supernatant
- number of IgG+-wells/cell clones and IgG-concentration in the supernatant (hamster B-cells; addition of IL-4 to the feeder mix, hamster B-cells): increases the number of IgG^+-wells/cell clones as well as the IgG-concentration in the supernatant
